# Experimental data taken from patent US5344821A, “Pheromonostatic peptide used to disrupt mating of the corn earworm, helicoverpa zea” (The United States of America, as represented by the …, priority 1993, dated 1994).
# Where a name gives a salt, the structure may show the parent alone.
# Legend:
# tobacco budworm moths = conditions: cited from earlier work
# corn earworm moths = conditions: cited from earlier work
# H. zea males [1] = conditions: field experiments, sticky or electric grid traps; cited from earlier work
# H. zea males [2] = conditions: caged males; cited from earlier work
# female H. zea = experiment: Depletion of female sex pheromone after transfer of the polypeptide during mating; type: in vivo, Helicoverpa zea
# Protocol: This invention relates to a polypeptide which is transferred from the male corn earworm moth to the female during mating. After transfer, a decline in the production of sex pheromone is observed for at least 24 hours and the female becomes unattractive to males over that period of time. A continued presence of this peptide within the female serves as an effective means of insect control by rendering it permanently unattractive. The peptide is also useful in the study of insect physiology.
# Non-volatile chemicals may also trigger behavioral changes. As described above, the neuropeptide PBAN initiates pheromone biosynthesis. In addition, another polypeptide, pheromonostatic peptide (PSP) is produced in the reproductive tract of male H. zea and is transferred with spermatozoa to the female during mating.
# H. zea females = experiment: Bioassay: pheromone content of ligated, PBAN-injected females after a second injection with the isolated material; type: in vivo, Helicoverpa zea
# Protocol: The activity of the two peptides was evaluated by bioassay. Females were first ligated between head & thorax to remove their own source of PBAN; they were then injected with PBAN to stimulate pheromone biosynthesis, followed by a later injection with the isolated material.
# Females in their 1st or 2nd photophase after emergence are ligated between the head and thorax with silk thread. The following morning, approximately 16 hours later, the females are injected with 2 picomoles of the pheromonotropic peptide PBAN. One hour later, they are injected a second time with fractionated material obtained as described supra. Two hours later, the tip of the abdomen (at the 7th abdominal segment), containing the ovipositor and the glandular tissue producing sex pheromone, is excised and extracted with 5-15 μl heptane The amount of the major component of sex pheromone, Z-11-hexadecenal, is quantified by gas chromatography. Females receiving saline (control) at the second injection typically contain 50-150 nanograms pheromone in the extract while females having been injected with the peptides extracted from the male reproductive tract are found to have 1-5 nanograms.
compound,measurement,setting,value
"CCCC/C=C\CCCCCCCCOC=O [(Z)-9-TDF, (Z)-9-tetradecen-1-ol formate]",reduction of mating,tobacco budworm moths,effective in reducing mating
same,reduction of mating,corn earworm moths,effective in reducing mating
CCCC/C=C\CCCCCCCCCC=O [Z-11-hexadecenal],catch of males in traps in the presence of the compound,H. zea males [1],inhibited
same,sex stimulation activity,H. zea males [2],strong sex stimulation activity
"PSP: basic, 57-amino acid peptide, 6615 daltons, one disulfide, pyro-Glu N-terminus, amidated C-terminus, from male H. zea accessory glands and duplex",duration of the pheromone depletion,female H. zea; after transfer during mating,at least 24 hours
same,effect on female sex pheromone after transfer at mating,female H. zea; transferred with spermatozoa from male to female during mating,causes a depletion of the sex pheromone
same,pheromone accumulation with versus without PSP injection,"H. zea females; ligated females injected with PBAN, then with the isolated material",females receiving no PSP typically accumulated pheromone in much higher amounts than those having been injected with PSP
same,amount of Z-11-hexadecenal (major component of sex pheromone) in the ovipositor/gland extract,"H. zea females; ligated females, 2 picomoles PBAN, test material injected 1 hour later, gland excised 2 hours later, gas chromatography, saline control 50-150 nanograms",1-5 nanograms
